In patent publication US10654828B2 (NOVARTIS AG, priority 2017, dated 2020):
Read-outs that look alike come from different tables or passages of the source.

Assays:
AKT = AKT activation: Phospho-AKT (Ser473) antibody staining in reporter cells; format: cell-based; settings: U2OS GFP-FoxO3a H212R cells, serum starved overnight, compound 30 minutes, total cellular intensity of Phospho-AKT (Ser473) staining, DMSO control 0%
Procedure: (§1) Phosphorylation of AKT on S473 and FoxO3a nuclear to cytoplasmic translocation were used as readouts of PI3K/Akt/mTOR pathway activation downstream of growth factor signaling.
(§2) Reporter cell line. U2OS GFP-FoxO3a H212R reporter cell line was established by transducing U2OS cells with the retroviral plasmid pLEGFP-C1 containing FoxO3a H212R transgene and selecting for G418 resistant clones.
(§3) Reporter assay. U2OS GFP-FoxO3a H212R cells were plated in 384-well plates at 4000 cells per well in 30 microliters of McCoy's 5 A medium containing 10% FBS. On day 1 the cells were washed with serum free medium and serum starved overnight. On day 2 the cells were treated with different doses of the compounds for 30 minutes, fixed with 4% Paraformaldehyde for 1 hour and stained with Phospho-AKT (Ser473) antibody (Cell Signaling Technology, catalog #4060) overnight at 4 degrees Celsius. After nuclei staining with Hoechst 33342 (Life Technologies, catalog # H3570) the plates were imaged with InCell 2000 (GE Healthcare Bio-Sciences). FoxO3a inhibition activity is calculated as the ratio of nuclear to cytosolic GFP intensity in percent. AKT activation is measured as the total cellular intensity of Phospho-AKT antibody staining in percent. DMSO control is set as 0% activity.

FoxO3a = FoxO3a inhibition: GFP-FoxO3a nuclear to cytoplasmic translocation reporter assay; format: cell-based; settings: U2OS GFP-FoxO3a H212R cells, serum starved overnight, compound 30 minutes, ratio of nuclear to cytosolic GFP intensity, DMSO control 0%, read-out: FoxO AC50
Procedure: as §1, §2, §3

Structure (SMILES)	AC50 (AKT; Homo sapiens, U2OS, 0.5 h)	AC50 (FoxO3a; Homo sapiens, U2OS, 0.5 h)	AC50 (AKT)	AC50 (FoxO3a)
Cc1cc(C(N)=O)nn1-c1ccc2c(ccn2Cc2ccc(-c3ccc(S(=O)(=O)N4CCN(C)CC4)cc3)cc2)c1 [Example 1-11, 5-methyl-1-(1-((4′-((4-methylpiperazin-1-yl)sulfonyl)-[1,1′-biphenyl]-4-yl)methyl)-1H-indol-5-yl)-1H-pyrazole-3-carboxamide]	388 nM	69 nM		
Cc1cc(C(N)=O)nn1-c1ccc2c(ccn2Cc2ccc(C3=CCC4(CC3)CN(C)C4)cc2)c1 [Example 15-3, 5-methyl-1-(1-(4-(2-methyl-2-azaspiro[3.5]non-6-en-7-yl)benzyl)-1H-indol-5-yl)-1H-pyrazole-3-carboxamide]	398 nM	96 nM		
Cc1cc(C(N)=O)nn1-c1ccc2c(ccn2Cc2ccc(-c3ccc(C(=O)N4CCN(C)CC4)cc3)cc2)c1 [Example 36, 5-methyl-1-(1-((4′-(4-methylpiperazine-1-carbonyl)-[1,1′-biphenyl]-4-yl)methyl)-1H-indol-5-yl)-1H-pyrazole-3-carboxamide]	39 nM	49 nM		
Cc1cc(C(N)=O)nn1-c1ccc2c(ccn2Cc2ccc(-c3ccc4cnccc4c3)cc2)c1 [Example 1-18, 1-(1-(4-(isoquinolin-6-yl)benzyl)-1H-indol-5-yl)-5-methyl-1H-pyrazole-3-carboxamide]	352 nM	95 nM		
Cc1cc(C(N)=O)nn1-c1ccc2c(ccn2Cc2ccc(C3=CCOCC3)cc2)c1 [Example 1-3, 1-(1-(4-(3,6-dihydro-2H-pyran-4-yl)benzyl)-1H-indol-5-yl)-5-methyl-1H-pyrazole-3-carboxamide]	> 10000 nM	201 nM		
Cc1cc(C(N)=O)nn1-c1ccc2c(ccn2Cc2ccc([C@H]3C[C@@H]4CN(C)C[C@@H]4C3)cc2)c1 [Example 26-2, 5-methyl-1-(1-(4-((3aR,5s,6aS)-2-methyloctahydrocyclopenta[c]pyrrol-5-yl)benzyl)-1H-indol-5-yl)-1H-pyrazole-3-carboxamide]	362 nM	80 nM		
Cc1cc(C(N)=O)nn1-c1ccc2c(ccn2Cc2ccc(-c3ccc(S(=O)(=O)CCN4CCN(C)CC4)cc3)cc2)c1 [Example 19, 5-methyl-1-(1-((4′-((2-(4-methylpiperazin-1-yl)ethyl)sulfonyl)-[1,1′-biphenyl]-4-yl)methyl)-1H-indol-5-yl)-1H-pyrazole-3-carboxamide]	142 nM	61 nM		
Cc1cc(C(N)=O)nn1-c1ccc2c(ccn2Cc2ccc([C@@H]3C[C@@H]4CN(S(C)(=O)=O)C[C@@H]4C3)cc2)c1 [Example 41, 5-methyl-1-(1-(4-((3aR,5r,6aS)-2-(methylsulfonyl)octahydrocyclopenta[c]pyrrol-5-yl)benzyl)-1H-indol-5-yl)-1H-pyrazole-3-carboxamide]	304 nM	113 nM		
Cc1cc(C(N)=O)nn1-c1ccc2c(ccn2Cc2ccc(C3CCCNC3)cc2)c1 (stereo not shown) [Example 2-4, 5-methyl-1-(1-(4-(piperidin-3-yl)benzyl)-1H-indol-5-yl)-1H-pyrazole-3-carboxamide]	1630 nM	429 nM		
Cc1cc(C(N)=O)nn1-c1ccc2c(ccn2Cc2ccc(-c3ccc(CO)cc3)cc2)c1 [Example 1-32, 1-(1-((4′-(hydroxymethyl)-[1,1′-biphenyl]-4-yl)methyl)-1H-indol-5-yl)-5-methyl-1H-pyrazole-3-carboxamide]	578 nM	205 nM		
Cc1cc(C(N)=O)nn1-c1ccc2c(ccn2Cc2ccc(C3=CCN(C)CC3(C)C)cc2)c1 [Example 15-2, 5-methyl-1-(1-(4-(1,3,3-trimethyl-1,2,3,6-tetrahydropyridin-4-yl)benzyl)-1H-indol-5-yl)-1H-pyrazole-3-carboxamide]	389 nM	197 nM		
Cc1nc(C(N)=O)nn1-c1ccc2c(ccn2Cc2ccc(-c3ccc(CN4CCCC4)cc3)cc2)c1 [Example 28, 5-methyl-1-(1-((4′-(pyrrolidin-1-ylmethyl)-[1,1′-biphenyl]-4-yl)methyl)-1H-indol-5-yl)-1H-1,2,4-triazole-3-carboxamide]	251 nM	87 nM		
Cc1cc(C(N)=O)nn1-c1ccc2c(ccn2Cc2ccc(C3=CCN(C)CC3C)cc2)c1 (single isomer, unassigned) [Example 17-3, 1-(1-(4-(1,3-dimethyl-1,2,3,6-tetrahydropyridin-4-yl)benzyl)-1H-indol-5-yl)-5-methyl-1H-pyrazole-3-carboxamide]			840 nM	251 nM
Cc1cc(C(N)=O)nn1-c1ccc2c(ccn2Cc2ccc(-c3ccc(CN4CCN(C)CC4)cc3)cc2)c1 [Example 34-3, 5-methyl-1-(1-((4′-((4-methylpiperazin-1-yl)methyl)-[1,1′-biphenyl]-4-yl)methyl)-1H-indol-5-yl)-1H-pyrazole-3-carboxamide]	266 nM	131 nM		
Cc1cc(C(N)=O)nn1-c1ccc2c(ccn2Cc2ccc(C3=CCN4CCCC3C4)cc2)c1 (single isomer, unassigned) [Example 13, 1-(1-(4-(1-azabicyclo[3.3.1]non-3-en-4-yl)benzyl)-1H-indol-5-yl)-5-methyl-1H-pyrazole-3-carboxamide]	1530 nM	437 nM		
Cc1cc(C(N)=O)nn1-c1ccc2c(ccn2Cc2ccc(-c3ccc(O)c(F)c3)cc2)c1 [Example 1-15, 1-(1-((3′-fluoro-4′-hydroxy-[1,1′-biphenyl]-4-yl)methyl)-1H-indol-5-yl)-5-methyl-1H-pyrazole-3-carboxamide]	172 nM	56 nM		
Cc1cc(C(N)=O)nn1-c1ccc2c(ccn2Cc2ccc(-c3cnc(N)nc3)cc2)c1 [Example 1-29, 1-(1-(4-(2-aminopyrimidin-5-yl)benzyl)-1H-indol-5-yl)-5-methyl-1H-pyrazole-3-carboxamide]	774 nM	340 nM		
Cc1nc(C(N)=O)nn1-c1ccc2c(ccn2Cc2ccc([C@@H]3C[C@@H]4CN(C)C[C@@H]4C3)cc2)c1 [Example 27, 5-methyl-1-(1-(4-((3aR,5r,6aS)-2-methyloctahydrocyclopenta[c]pyrrol-5-yl)benzyl)-1H-indol-5-yl)-1H-1,2,4-triazole-3-carboxamide]	947 nM	224 nM		
Cc1cc(C(N)=O)nn1-c1ccc2c(ccn2Cc2ccc(C3=CCN(C)CC3C)cc2)c1 (stereo not shown) [Example 17-1, 1-(1-(4-(1,3-dimethyl-1,2,3,6-tetrahydropyridin-4-yl)benzyl)-1H-indol-5-yl)-5-methyl-1H-pyrazole-3-carboxamide]	460 nM	102 nM		
CC(=O)N1CC=C(c2ccc(Cn3ccc4cc(-n5nc(C(N)=O)cc5C)ccc43)cc2)CC1 [Example 1-4, 1-(1-(4-(1-acetyl-1,2,3,6-tetrahydropyridin-4-yl)benzyl)-1H-indol-5-yl)-5-methyl-1H-pyrazole-3-carboxamide]	252 nM	121 nM		
Cc1cc(C(N)=O)nn1-c1ccc2c(ccn2Cc2ccc(C#CCN(C)C)cc2)c1 [Example 12, 1-(1-(4-(3-(dimethylamino)prop-1-yn-1-yl)benzyl)-1H-indol-5-yl)-5-methyl-1H-pyrazole-3-carboxamide]	1190 nM	402 nM		
Cc1cc(C(N)=O)nn1-c1ccc2c(ccn2Cc2ccc(-c3cnc(N(C)C)nc3)cc2)c1 [Example 1-36, 1-(1-(4-(2-(dimethylamino)pyrimidin-5-yl)benzyl)-1H-indol-5-yl)-5-methyl-1H-pyrazole-3-carboxamide]	1050 nM	477 nM		
Cc1cc(C(N)=O)nn1-c1ccc2c(ccn2Cc2ccc(-c3ccc(S(=O)(=O)N(C)C)cc3)cc2)c1 [Example 1-13, 1-(1-((4′-(N,N-dimethylsulfamoyl)-[1,1′-biphenyl]-4-yl)methyl)-1H-indol-5-yl)-5-methyl-1H-pyrazole-3-carboxamide]	230 nM	84 nM		
Cc1cc(C(N)=O)nn1-c1ccc2c(ccn2Cc2ccc(-c3ccc(NS(C)(=O)=O)cc3)cc2)c1 [Example 1-33, 5-methyl-1-(1-((4′-(methylsulfonamido)-[1,1′-biphenyl]-4-yl)methyl)-1H-indol-5-yl)-1H-pyrazole-3-carboxamide]	351 nM	82 nM		
Cc1cc(C(N)=O)nn1-c1ccc2c(c1)c(CCCO)cn2Cc1ccc(-c2ccc(S(C)(=O)=O)cc2)cc1 [Example 22, 1-(3-(3-hydroxypropyl)-1-((4′-(methylsulfonyl)-[1,1′-biphenyl]-4-yl)methyl)-1H-indol-5-yl)-5-methyl-1H-pyrazole-3-carboxamide]	81 nM	32 nM		
Cc1cc(C(N)=O)nn1-c1ccc2c(ccn2Cc2ccc(C3CCN(C)CC3(C)C)cc2)c1 (single isomer, unassigned) [Example 16-2, 5-methyl-1-(1-(4-(1,3,3-trimethylpiperidin-4-yl)benzyl)-1H-indol-5-yl)-1H-pyrazole-3-carboxamide]			1220 nM	161 nM
